These results are taken from EP3351262A1, “CURAGLUTIDE FOR IN TREATMENT OF PREDIABETES, DIABETES, OBESITY AND METABOLIC DISEASES ASSOCIATED THERETO” (Istanbul Universitesi Rektorlugu, priority 2016, dated 2018).

Like-named read-outs stand apart in the source and are kept apart here.

Assay type in all cases: cell-based, rat
The test system of data set [1] is INS-1 cells. Particulars: for cell viability values: 24 hours, INS-1 cells, control 100±3.3%. How it is done:
(§1) INS-1 cell strain from rat origin used in the studies was proliferated by performing routine passages once per week. The cells were grown under 1 atm pressure, in the incubator containing 5% CO2 and 95% air, in powder RPMI 1640 medium containing heat inactivated 10% fetal bovine serum (FBS) and antibiotics (100 unit/ml penicillin G100, 100 µg/ml streptomycin), 1% sodium pyruvate, hepes, sodium bicarbonate and beta-mercaptoethanol at 37 °C. The cells produced in 75 cm^2 sterile culture plate were used for the experiment when they covered 60-80% of the culture plate.
(§2) The cells to be used in the experiments were removed from the surface of culture plate where they stuck, when they cover 60-80% of the culture plate, by using trypsin. In order to prevent the effect of trypsin to cells whose removal was monitored under microscope, the medium with the equal amount as trypsin was added and the cell suspension was collected in the centrifuge tube and centrifuged in 1500 rpm for 5 minutes. The supernatant was removed after centrifuge, the medium was added to the cells remained in the bottom part of the tube and pipetted in order to form single cell suspension. The total amount of cells was calculated by using hemocytometer. 50 000 INS-1 beta cells taken from 100% viable single cell suspension, whose cell amount was calculated, were cultured to each of the culture plates with 96 wells. The cultured cells were incubated at 37 °C for 24 hours in order to provide the sticking to the surface of culture plate and growing. After 24 of incubation, the cells were treated with 0.25 mM, 0.5 mM, 0.75 mM, 1 mM, 1.25 mM, 1.5 mM, 1.75 mM, 2 mM, 2.5 mM, 2.75 mM, 3 mM, 3.25 mM, 3.5 mM, 3.75 mM,4 mM, 4.25 mM, 4.5 mM, 4.75 mM, 5 mM palmitic acid which were the chosen doses for palmitic acid. 10 wells including the control group were used in the experiments and 24-hour experiment groups were formed for each of the concentrations.
(§3) After the removal of the grown cells by trypsin, culturing was performed to 96 wells in a way such that there would be 50 000 cells in 200 µl. The cultured cells were incubated at 37 °C for 24 hours in order to provide growing. After 24 h of incubation, the cells were treated with 1nM, 10nM, 100nM curaglutide which were the chosen doses. 10 wells including the control group were used in the experiments and 24-hour experiment groups have been formed for each of the concentrations.
(§4) MTT ([3-(4, 5-dimethyl tiazol-2-il)-2, 5 diphenyl tetrazolium bromide]) test is a drug sensitivity test based on cell culture principal, it aims to assess the cell growth and/or cell death in an indirect way. This frequently used test differs from the other testing methods, with the advantages that it is fast, sensitive, reproducible and easy to apply. The cracking of the tetrazolium ring of MTT paint by mitochondria in living cells underlies the basis of this method. This reaction is catalyzed by succinate dehydrogenase which is a mitochondrial enzyme. MTT is absorbed to cells actively and it is reduced to formazan which is non-soluble in water and has blue-purple color, by the reaction taking place in mitochondria. The MTT reducing properties of the cells are accepted as the cell viability criteria and they are directly proportionate to the paint density and living cell amount obtained by MTT analyze. While living cells with non-damaged mitochondria function are painted with purple color, cells that are dead or with damaged mitochondria function are not painted. Following bringing the formazan crystals formed by incubated living cells into soluble form, reaction product is read […].
(§5) 50 mg MTT (AppliChem A2231 0001) was weighed, it was dissolved by completing 10 ml with RPMI 1640 medium via vortex, with paying attention that there are no not-dissolved paint particles left, and they were obtained by filtering through 0.22 µm filter. It was used by preparing a fresh one each time. […]

Data set [2] concerns INS-1 cells. The data set can be described thus: Cell viability by MTT test. Particulars: 2 mM palmitic acid, repetitive experiments. The protocol: as §1
as §2, with “[…],” for “2 mM, 2.5 mM,”
as §3, §4, §5
Background: Tetrazolium dyes change colour on reduction, which living cells bring about.

Data set [3] is described as follows: Cell viability by MTT test. The conditions noted are these: rat, 24 h, INS-1 cells, control 100%. How it is done:
as §1
as §2, with “[…],” for “2 mM, 2.5 mM,”
as §3, §4, §5

On to `CC[C@H](C)[C@H](NC(=O)[C@H](Cc1ccccc1)NC(=O)[C@H](CCC(=O)O)NC(=O)[C@H](CCCCN)NC(=O)[C@H](C)NC(=O)[C@H](C)NC(=O)[C@H](CCC(N)=O)NC(=O)CNC(=O)[C@H](CCC(=O)O)NC(=O)[C@H](CC(C)C)NC(=O)[C@H](Cc1ccc(O)cc1)NC(=O)[C@H](CO)NC(=O)[C@H](CO)NC(=O)[C@@H](NC(=O)[C@H](CC(=O)O)NC(=O)[C@H](CO)NC(=O)[C@@H](NC(=O)[C@H](Cc1ccccc1)NC(=O)[C@@H](NC(=O)CNC(=O)[C@H](CCC(=O)O)NC(=O)[C@H](C)NC(=O)[C@H](Cc1c[nH]cn1)NC(C)=O)[C@@H](C)O)[C@@H](C)O)C(C)C)C(=O)N[C@@H](C)C(=O)N[C@@H](Cc1c[nH]c2ccccc12)C(=O)N[C@@H](CC(C)C)C(=O)N[C@H](C(=O)N[C@@H](CCCCN)C(N)=O)C(C)C` [curaglutide], for which the cell viability values in the data set with INS-1 cells [1] (1 nM curaglutide alone) is 104.50±3.70%; in the data set on INS-1 cells [1] (10 nM curaglutide alone), 121.80±7.30%; with INS-1 cells [1] (100 nM curaglutide alone) it was 115.20±3.30%. For the same compound, the “% cell viability values” in the data set with INS-1 cells [1] (10 nM curaglutide as curative agent (24 h after 24 h palmitic acid) for 1.75 mM palmitic acid (autophagic dose)) was found to be 78.3±1.6%; with INS-1 cells [1] (10 nM curaglutide as curative agent for 2 mM palmitic acid (apoptotic dose)) it was 60.9±4.3%; in the data set on INS-1 cells [1] (10 nM curaglutide as curative agent for 3 mM palmitic acid (necrotic dose)), 56.5±1.7%; in the data set with INS-1 cells [1] (10 nM curaglutide as curative agent for 4 mM palmitic acid) it was 46.6±5.8%; with INS-1 cells [1] (10 nM curaglutide as protective against 3 mM palmitic acid (necrotic dose)), 56.4±4.7%; in the data set on INS-1 cells [1] (10 nM curaglutide as protector (24 h pre-treatment, then with palmitic acid 24 h) against 1.75 mM palmitic acid (autophagic dose)), 129.9±4.6%. Besides, the figures for the “% cell viability values” in the data set with INS-1 cells [1] (10 nM curaglutide as protector against 2 mM palmitic acid (apoptotic dose)) and with INS-1 cells [1] (10 nM curaglutide as protector against 4 mM palmitic acid) were 103.9±0.6% and 52.2±4.6%, respectively.

A word on the viability: it is a per cent measure of how many cells are alive, often set against a control. Regarding `CCCCCCCCCCCCCCCC(=O)O` [palmitic acid], the cell death in the data set on INS-1 cells [2] was 50%. The compound further registered a viability at 24 h, 0.25 mM in data set [3] (0.25 mM palmitic acid) of 92 ± 2.4%. This compound came in with a viability at 24 h, 0.5 mM in data set [3] (0.5 mM palmitic acid) of 81.5 ± 7.6%. This compound also yielded a viability at 24 h, 0.75 mM in data set [3] (0.75 mM palmitic acid) of 75.6 ± 4.37%. The compound also gave a viability at 24 h, 1 mM in data set [3] (1 mM palmitic acid) of 74.8 ± 2.35%. In data set [3] (1.25 mM palmitic acid), the viability at 24 h, 1.25 mM was 72.7 ± 7.7%. Besides, the viability at 24 h, 1.5 mM in data set [3] (1.5 mM palmitic acid) turned out to be 69.9 ± 7.4%. This compound also registered a viability at 24 h, 1.75 mM in data set [3] (1.75 mM palmitic acid (autophagic dose)) of 60.6 ± 11.6%. The same compound yielded a viability at 24 h, 2 mM in data set [3] (2 mM palmitic acid (apoptotic dose)) of 50.1 ± 11%. For the same compound, the viability at 24 h, 2.25 mM in data set [3] (2.25 mM palmitic acid) is 58.4 ± 11.5%. This compound also had a viability at 24 h, 2.5 mM in data set [3] (2.5 mM palmitic acid) of 49.9 ± 3%. Further, in data set [3] (2.75 mM palmitic acid), the viability at 24 h, 2.75 mM came out at 62.9 ± 4.3%. Also, the viability at 24 h, 3 mM in data set [3] (3 mM palmitic acid (necrotic dose)) turned out to be 36.5 ± 3.3%. In addition, the viability at 24 h, 3.25 mM in data set [3] (3.25 mM palmitic acid) turned out to be 44.1 ± 8.7%. The viability at 24 h, 3.5 mM in data set [3] (3.5 mM palmitic acid) was determined as 39.4 ± 11.4%. The same compound gave a viability at 24 h, 3.75 mM in data set [3] (3.75 mM palmitic acid) of 42.9 ± 8.2%. In addition, the viability at 24 h, 4 mM in data set [3] (4 mM palmitic acid (necrotic dose)) was found to be 41 ± 6.6%. The viability at 24 h, 4.25 mM in data set [3] (4.25 mM palmitic acid) worked out at 44.9 ± 11.8%. In data set [3] (4.5 mM palmitic acid), this compound showed a viability at 24 h, 4.5 mM of 37.3 ± 10.5%. This compound also showed a viability at 24 h, 4.75 mM in data set [3] (4.75 mM palmitic acid) of 35.7 ± 3.7%. This compound also displayed a viability at 24 h, 5 mM in data set [3] (5 mM palmitic acid) of 42.1 ± 4.4%.
